Reference: ChEMBL document CHEMBL5614449, “Open Source Code Contributions to Global Health: The Case of Antimalarial Drug Discovery” (ACS Med Chem Lett, 2024)

Test system: Plasmodium
Assay: Antiplasmodial activity against Plasmodium
Format: functional, organism-based

FC(F)Oc1ccc(-c2nnc3cncc(OCc4ccc(C(F)(F)F)cc4)n23)cc1
IC50: 5270 nM

FC(F)Oc1ccc(-c2nnc3cncc(OCc4cc(OC(F)F)ccn4)n23)cc1
IC50: 5040 nM

FC(F)Oc1ccc(-c2nnc3cncc(OCc4cc5c(cc4Cl)OCO5)n23)cc1
IC50: > 25000 nM

Fc1cc2c(cc1F)C(COc1cncc3nnc(-c4ccc(OC(F)F)cc4)n13)C2 (stereo not drawn)
IC50: 480 nM

FC(F)Oc1ccc(-c2nnc3cncc(OCc4ccc5c(c4)OCO5)n23)cc1
IC50: > 10000 nM

COC(COc1cncc2nnc(-c3ccc(OC(F)F)cc3)n12)c1ccc(OC(F)F)cc1 (stereo not drawn)
IC50: 77 nM

FC(F)Oc1ccc(-c2nnc3cncc(OCc4cccc(Br)c4)n23)cc1
IC50: 670 nM

COC(COc1cncc2nnc(-c3ccc(OC(F)F)cc3)n12)c1ccccc1 (stereo not drawn)
IC50: 110 nM

FC(F)Oc1ccc(-c2nnc3cncc(OCc4cnccc4C(F)(F)F)n23)cc1
IC50: 5900 nM

Fc1cccc(F)c1COc1cncc2nnc(-c3ccc(OC(F)F)cc3)n12
IC50: 4080 nM

FC(F)Oc1ccc(-c2nnc3cncc(OCc4csc(C(F)(F)F)c4)n23)cc1
IC50: 2460 nM

FC(F)Oc1ccc(-c2nnc3cncc(OCCCC(F)(F)F)n23)cc1
IC50: 410 nM

FC(F)Oc1ccc(-c2nnc3cncc(OCc4ccccc4C(F)(F)F)n23)cc1
IC50: 890 nM

FC(F)Oc1ccc(-c2nnc3cncc(OCc4ccccc4)n23)cc1
IC50: 1120 nM

FC(F)Oc1ccc(-c2nnc3cncc(OCc4cccc(C(F)(F)F)c4)n23)cc1
IC50: 390 nM

O=[N+]([O-])c1cccc(CCOc2cncc3nnc(-c4ccc(OC(F)F)cc4)n23)c1
IC50: 250 nM

FC(F)Oc1ccc(-c2nnc3cncc(OCCc4ccccc4)n23)cc1
IC50: 170 nM

Fc1cccc(OCCOc2cncc3nnc(-c4ccc(OC(F)F)cc4)n23)c1
IC50: 1350 nM
